Entries after “also recorded” stand apart in the source; their conditions may differ. Like-named read-outs stand apart in the source and are kept apart here.
Tests used:
S. pyogenes M1 [1] = type: in vivo, mouse
S. pyogenes M1 [2] = type: cell-based, Streptococcus pyogenes; details: 1 h
S. pyogenes M1 [3] = type: cell-based, mouse
S. aureus USA300 = test: S. aureus (MRSA) lung infection / lethal pneumonia; type: in vivo, mouse
[4] = system: Pseudomonas aeruginosa strain PA01V; test: P. aeruginosa lung infection; type: in vivo, mouse; details: RTX vs vehicle
[5] = Heat sensitivity (hot plate and tail-flick assays); type: in vivo, mouse; details: RTX vs vehicle
Method: Behavior tests. For behavioral assays, observers were blinded to treatment group and genotype. To measure heat sensitivity, mice were placed on a hot plate set at 52° C. (IITC Life Science). Latency to hindpaw lifting/licking/flinching was recorded, and stopped at a maximum of 60 seconds. For tail-flick assay, mice were kept vertically in a relaxed fashion with their tail immersed in a temperature-controlled water bath maintained at 52° C. The latency to a tail flick was recorded, with maximum of 60 seconds.

skin punch biopsies = test: CGRP release assay from skin explants; type: in vivo, mouse; details: RTX-treated vs vehicle; 7 h
Method: CGRP release assay from skin explants. Skin punch biopsies (12 mm) were collected from the uninfected or infected flank skin samples of euthanized mice, and rapidly transferred to 24-well plates containing 1 mL of DMEM. Explants were incubated at 32° C. with gentle shaking (150 rpm) for 30 min.

[6] = type: in vivo, mouse; details: RTX-treated vs vehicle; steady state
Method: Vital sign measurements. Heart rate, oxygen saturation and perfusion were measured under isoflurane anesthesia by Pulse Oximetry using the Kent Scientific PhysioSuite (Kent Scientific Corporation). For accuracy, measurements were performed three independent times on different days for the same mice, and values represent the average of three measurements. Pulse Oximetry could not be used on MRSA infected mice because they could not survive isoflurane anesthesia, and thus the measurements were only performed at steady state. Respiratory rates were determined by manually recording number of breaths per minute and averaged over three measurements. Core body temperature was measured using a rectal thermal probe (Bioseb).

neutrophils = test: Pulmonary intravital microscopy of neutrophils; type: in vivo, mouse; details: RTX
Method: Pulmonary intravital microscopy. […]. To visualize neutrophils and endothelium, 3.5 μg Alexa Fluor 594 conjugated anti-Ly6G antibody (clone 1A8, BioLegend) and 5 μg Alexa Fluor 647 conjugated anti-CD31 antibody (clone MEC13.3, BioLegend) were injected intravenously. Mice were placed on a heating pad maintained at 37° C. and connected to mechanical ventilation (Harvard Apparatus) after a tracheostomy is performed. Mice were kept in a right lateral decubitus position and their left lung was exposed after a thoracotomy and rib resection. A portion of the lung was immobilized via a gentle vacuum chamber with a glass slide fitted on top. A resonant-scanner confocal microscope (Leica SP8) equipped with a white light laser and three HyD spectral detectors and a 25×/0.9 water objective lens were used for intravital microscopy. Images were acquired every 10 s for a total of 10 min, three to five fields of view were observed. All videos and images were processed and analyzed using Leica software and Volocity software. For neutrophil behavior analysis, tethering was defined as rapid movement with blood flow and stop for less than 30 s. Adhesion was defined as neutrophils that remained stationary for 30 s or longer. Crawling was defined as polarized cells that maintained continuous contact with the endothelium while changing physical location for at least 30 s. Random neutrophils were tracked manually in 10-min videos by using Volocity software.

[7] = system: Streptococcus pneumoniae strain WU-2; test: S. pneumoniae lung infection; type: in vivo, mouse; details: RTX vs vehicle; P=0.13
S. pyogenes M1 [8] = type: in vivo, mouse; remark: listed apart in the source
Klebsiella pneumoniae = test: K. pneumoniae lung infection; type: in vivo, mouse; details: RTX vs vehicle
[9] = system: TRPV1-positive nociceptors; test: Ablation of TRPV1+ nociceptors, quantification of DRG/vagal ganglia neurons; details: mouse, in vivo

NCCCC[C@H](NC(=O)[C@@H](Cc1cc(Br)c(O)c(Br)c1)NC(=O)N1CCC(N2Cc3ccccc3NC2=O)CC1)C(=O)N1CCN(c2ccncc2)CC1 [BIBN4096]
abscess formation (S. pyogenes M1 [1]; mouse, in vivo, 30 mg/kg): significantly decreases abscess formation; also recorded: reduced abscesses
dermonecrotic lesion size (S. pyogenes M1 [1]; mouse, in vivo, ip, 30 mg/kg): significantly smaller lesion formation; also recorded: smaller dermonecrotic lesions
neutrophil (CD11b+Ly6G+) recruitment to infected area (S. pyogenes M1 [1]; treated 2 h after infection, 1 day after injection): increased the recruitment of neutrophils
bacterial load recovery, flank skin and spleen (S. pyogenes M1 [1]; treated 2 h after infection, 9 days after injection of bacteria): decreases flank skin and spleen bacterial burdens; also recorded: increased bacterial clearance in the skin
direct effects on S. pyogenes growth or viability (S. pyogenes M1 [2]): did not have direct effects
neutrophil killing of S. pyogenes suppressed by DRG neurons (S. pyogenes M1 [3]): enhances neutrophil killing of bacteria; also recorded: prevented the suppressive effects

CGRP8-37 (VTHRLAGLLSRSGGVVKNNFVPTNVGSKAF; Calcitonin gene-related peptide 1; UniProt P06881 90-119, looked up, fragment)
survival (S. aureus USA300; CGRP8-37 800 ng i.p. at -24, -2, 12, 24, 36, 48 h): improved survival
core body temperature maintenance (S. aureus USA300; CGRP8-37 800 ng i.p. before and after infection): improved
core body temperature (S. aureus USA300; CGRP8-37 7.5 μg i.p. after infection): significantly improved
survival (S. aureus USA300; CGRP8-37 7.5 μg i.p. at 4, 16, 24 h after infection): significantly improved survival
core-body temperature (S. aureus USA300; CGRP8-37 i.p. 12 hours prior and 12 hours after infection): maintenance of core-body temperature
survival (S. aureus USA300; CGRP8-37 i.p. 12 hours prior and 12 hours after infection, 10^7 CFU): significantly improved survival
direct effects on S. pyogenes growth or viability (S. pyogenes M1 [2]): did not have direct effects
neutrophil killing of S. pyogenes suppressed by DRG neurons (S. pyogenes M1 [3]): enhances neutrophil killing of bacteria; also recorded: prevented the suppressive effects

C=C(C)[C@]12C[C@@H](C)[C@@]34O[C@](Cc5ccccc5)(O[C@@H]1[C@@H]3C=C(COC(=O)Cc1ccc(O)c(OC)c1)C[C@]1(O)C(=O)C(C)=C[C@@H]41)O2 [RTX, Resiniferatoxin]
survival [4]: did not impact death
latency to noxious heat [5]: increased latency to noxious heat
dermonecrosis (S. pyogenes M1 [1]; RTX 30, 70, 100 μg/kg s.c., infection 4 weeks later): significantly less dermonecrosis
S. pyogenes in lesions, quantitative cultures (S. pyogenes M1 [1]; RTX-treated vs vehicle): log-fold reductions of S. pyogenes
body weight regain (S. pyogenes M1 [1]; RTX-treated vs vehicle): regained body weight faster
skin abscess size (S. pyogenes M1 [1]; RTX-treated vs vehicle): resolved faster
monocytes, other myeloid cells, CD11b-CD45+ leukocytes (FACS) (S. pyogenes M1 [1]; RTX-treated vs vehicle, 1 day): not detected
skin histopathology (S. pyogenes M1 [1]; RTX-treated, day 3): containment of the bacterial infection within a circumscribed abscess containing polymorphonuclear leukocytes
S. pyogenes cultured from spleens (S. pyogenes M1 [1]; RTX-treated, day 9): did not yield detectable bacteria
CGRP release in infected tissues (skin punch biopsies): lower CGRP release in infected tissues
oxygen saturation, heart rate, perfusion, respiratory rates [6]: did not differ
neutrophil crawling distances (neutrophils): significantly increased crawling distances
neutrophil vascular crawling (neutrophils): a significant proportion of neutrophils demonstrated vascular crawling
neutrophils recruited to pulmonary capillaries (neutrophils; 4 h post-infection GFP-S. aureus): significantly more neutrophils
survival [7]: modest but non-significant protective effect
mice succumbed to / died from infection (S. aureus USA300; RTX-treated mice given GR1 or control IgG): 0%
lung bacterial burdens / clearance (S. aureus USA300; RTX-treated vs vehicle, 12 h): significantly improved; also recorded: reduced lung bacterial burdens
core body temperature (S. aureus USA300; RTX-treated vs vehicle, lethal MRSA): improved maintenance of core-body temperature
survival (S. aureus USA300; RTX-treated vs vehicle, lethal MRSA intra-tracheal): significantly improved survival; also recorded: the majority of RTX-treated mice survived
BALF total protein, TNF-α, IL-6 and CXCL-1 induction (S. aureus USA300; RTX, 6 h): faster kinetics in the induction
CD11b+Ly6G+ lung neutrophil recruitment (S. aureus USA300; RTX, 6 h and 12 h post-infection): striking increase
gram-positive bacterial colonies in lung (Brown and Brenn) (S. aureus USA300; RTX, 12 h and 24 h): few bacterial colonies
lung cellular immune influx (H&E) (S. aureus USA300; RTX, 12 h and 24 h post-infection): increased cellular immune influx
BALF TNF-α, IL-6 and CXCL-1 levels (S. aureus USA300; RTX, 12 h post-infection): markedly reduced
CGRP levels in BALF (S. aureus USA300; RTX, 12 h post-infection): significantly reduced
bacterial load recovery, sub-lethal dose (S. aureus USA300; RTX, S. aureus 2-4×10^7 CFU): enhanced protection
heat hyperalgesia (S. pyogenes M1 [8]; RTX-treated): abrogated
mechanical hyperalgesia (S. pyogenes M1 [8]; RTX-treated): abrogated
spontaneous pain behaviors (S. pyogenes M1 [8]; RTX-treated): abrogated
survival (Klebsiella pneumoniae): did not impact death
TRPV1+ and CGRP+ neurons in DRG (and vagal/nodose ganglia) [9]: significant loss of CGRP+ nociceptive neurons; also recorded: led to loss of TRPV1+ and CGRP+ neurons; also recorded: loss of TRPV1+ and CGRP+ neurons in DRG and VG

CC(C)Cc1ccc(C(C)C(=O)O)cc1 (centres unmarked) [Ibuprofen]
heat hyperalgesia (S. pyogenes M1 [8]; ibuprofen 50 mg/kg): had no effect
mechanical hyperalgesia (S. pyogenes M1 [8]; ibuprofen 50 mg/kg): had no effect

— US11400136B2, “Methods and compositions for treating a microbial infection” (priority 2017, dated 2022)
